Data taken from publication PMC3909768 (Journal of Cancer, 2014).
Several values for one entry are separate records, joined by “and”; a condition that tells them apart may be missing. Identical values can stand only once.

How the values were obtained:
[1] = tested on: GABA receptors; assay: [3H]GABA binding, rat cerebral cortex membranes; conditions: 10uM
[2] = tested on: LnCaP-Z2 tumors; assay: LnCaP-Z2 xenograft antitumor efficacy; type: in vivo, male CB17-SCID mice
[3] = Plasma protein binding by equilibrium dialysis, mouse; type: in vitro ADME; conditions: Mice plasma, 1 uM, equilibrium dialysis 4h 37C
[4] = Plasma protein binding by equilibrium dialysis, rat; type: in vitro ADME; conditions: Rats plasma, 1 uM, equilibrium dialysis 4h 37C
[5] = Plasma protein binding by equilibrium dialysis, dog; type: in vitro ADME; conditions: Dogs plasma, 1 uM, equilibrium dialysis 4h 37C
[6] = Plasma protein binding by equilibrium dialysis, human; type: in vitro ADME; conditions: 1 uM, equilibrium dialysis 4h 37C
[7] = tested on: androgen-dependent reproductive organs; assay: Weight of androgen-dependent reproductive organs in rats, 14 days; type: in vivo, male rats; conditions: 30, 100 and 300 mg/kg/day po
[8] = tested on: spermatozoon in epididymis; assay: Concentration of spermatozoon in epididymis of rats, 60 days; type: in vivo, male rats; conditions: n=6
[9] = Dog pharmacokinetics; type: in vivo, male beagle dogs; conditions: multiple oral doses in dogs
[10] = Brain and prostate distribution after single IV in rats; conditions: rat, in vivo, 2 mg/kg; for concentration at 30 min / concentration at 120 min: single IV 2 mg/kg
[11] = tested on: CYP3A; assay: CYP3A induction in human hepatocytes; type: in vitro ADME; conditions: for CYP 3A induction, Positive control, %: human hepatocytes, 48 hours, listed as ONC1-0013B
[12] = target: T1, CYP 1A2 (Homo sapiens, UniProt P05177); assay: CYP inhibition; type: in vitro ADME; conditions: concentrations up to 10 uM
T1 sequence (P05177 1-516): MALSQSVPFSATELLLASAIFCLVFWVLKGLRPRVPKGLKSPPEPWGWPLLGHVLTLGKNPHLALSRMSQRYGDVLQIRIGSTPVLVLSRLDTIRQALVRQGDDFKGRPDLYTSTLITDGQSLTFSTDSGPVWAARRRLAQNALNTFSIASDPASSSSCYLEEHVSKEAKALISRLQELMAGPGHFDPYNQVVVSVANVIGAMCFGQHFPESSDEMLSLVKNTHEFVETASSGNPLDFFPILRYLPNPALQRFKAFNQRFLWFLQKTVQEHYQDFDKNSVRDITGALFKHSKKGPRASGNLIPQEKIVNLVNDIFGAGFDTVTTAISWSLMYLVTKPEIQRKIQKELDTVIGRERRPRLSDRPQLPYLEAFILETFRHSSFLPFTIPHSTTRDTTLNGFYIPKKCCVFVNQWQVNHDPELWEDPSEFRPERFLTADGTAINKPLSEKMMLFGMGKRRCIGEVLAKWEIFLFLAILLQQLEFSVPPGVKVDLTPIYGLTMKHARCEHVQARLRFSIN

[13] = target: CYP 2C9 (Homo sapiens, UniProt P11712); assay: CYP inhibition; type: in vitro ADME; conditions: concentrations up to 10 uM
[14] = target: CYP 2C19 (Homo sapiens, UniProt P33261); assay: CYP inhibition; type: in vitro ADME; conditions: concentrations up to 10 uM
[15] = target: CYP 2D6 (Homo sapiens, UniProt P10635); assay: CYP inhibition; type: in vitro ADME; conditions: concentrations up to 10 uM
[16] = target: CYP 3A4 (Homo sapiens, UniProt P08684); assay: CYP inhibition; type: in vitro ADME; conditions: concentrations up to 10 uM
[17] = target: T2, AR-LBD (Homo sapiens, UniProt P10275); assay: biochemical
T2 sequence (P10275 669-900 limits assumed): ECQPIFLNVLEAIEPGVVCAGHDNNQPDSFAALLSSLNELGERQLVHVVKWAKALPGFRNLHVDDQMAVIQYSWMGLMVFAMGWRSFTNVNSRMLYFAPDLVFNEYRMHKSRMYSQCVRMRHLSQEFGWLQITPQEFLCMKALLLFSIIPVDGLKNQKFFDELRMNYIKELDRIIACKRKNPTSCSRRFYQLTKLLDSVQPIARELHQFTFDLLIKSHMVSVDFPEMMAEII

[18] = Rat pharmacokinetics; conditions: for C24h: after 14 administrations; for AUC(0-inf) / k el / MRT inf / concentration at 24 h / Cmax / Tmax / half-life: male, Sprague Dawley, rat, in vivo
[19] = Drug concentration in plasma and xenograft tumor after 21-day dosing; conditions: male, CB17-SCID, mouse, in vivo

Sequence of CYP 2D6 (P10635 whole entry): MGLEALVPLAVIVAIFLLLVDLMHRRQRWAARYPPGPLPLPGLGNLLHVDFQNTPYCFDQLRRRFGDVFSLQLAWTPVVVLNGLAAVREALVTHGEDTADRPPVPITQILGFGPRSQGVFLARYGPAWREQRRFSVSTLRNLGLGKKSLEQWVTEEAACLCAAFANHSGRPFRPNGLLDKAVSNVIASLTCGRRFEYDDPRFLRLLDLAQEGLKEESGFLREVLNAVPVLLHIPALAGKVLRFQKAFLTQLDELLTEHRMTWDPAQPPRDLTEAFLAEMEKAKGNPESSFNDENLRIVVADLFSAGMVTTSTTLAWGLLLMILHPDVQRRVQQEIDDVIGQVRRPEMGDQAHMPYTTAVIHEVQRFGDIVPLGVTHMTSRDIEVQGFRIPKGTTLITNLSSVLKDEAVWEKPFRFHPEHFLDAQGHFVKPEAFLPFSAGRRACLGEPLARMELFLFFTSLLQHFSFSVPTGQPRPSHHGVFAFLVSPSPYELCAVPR
Sequence of CYP 3A4 (P08684 whole entry, the tested form may be a part): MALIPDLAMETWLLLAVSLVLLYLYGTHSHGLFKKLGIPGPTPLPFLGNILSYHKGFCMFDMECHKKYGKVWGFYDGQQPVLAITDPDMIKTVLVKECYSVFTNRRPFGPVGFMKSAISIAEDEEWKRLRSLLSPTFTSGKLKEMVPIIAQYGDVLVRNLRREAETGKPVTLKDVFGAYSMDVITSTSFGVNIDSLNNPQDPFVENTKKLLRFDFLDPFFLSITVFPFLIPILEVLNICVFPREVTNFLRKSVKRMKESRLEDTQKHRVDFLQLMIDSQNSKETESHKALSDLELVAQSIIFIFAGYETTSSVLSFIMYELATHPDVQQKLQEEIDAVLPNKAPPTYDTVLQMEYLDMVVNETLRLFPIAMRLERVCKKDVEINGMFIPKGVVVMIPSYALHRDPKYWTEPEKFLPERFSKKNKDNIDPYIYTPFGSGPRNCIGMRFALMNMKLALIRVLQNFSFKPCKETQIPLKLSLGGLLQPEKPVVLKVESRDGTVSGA
Sequence of CYP 2C19 (P33261 whole entry): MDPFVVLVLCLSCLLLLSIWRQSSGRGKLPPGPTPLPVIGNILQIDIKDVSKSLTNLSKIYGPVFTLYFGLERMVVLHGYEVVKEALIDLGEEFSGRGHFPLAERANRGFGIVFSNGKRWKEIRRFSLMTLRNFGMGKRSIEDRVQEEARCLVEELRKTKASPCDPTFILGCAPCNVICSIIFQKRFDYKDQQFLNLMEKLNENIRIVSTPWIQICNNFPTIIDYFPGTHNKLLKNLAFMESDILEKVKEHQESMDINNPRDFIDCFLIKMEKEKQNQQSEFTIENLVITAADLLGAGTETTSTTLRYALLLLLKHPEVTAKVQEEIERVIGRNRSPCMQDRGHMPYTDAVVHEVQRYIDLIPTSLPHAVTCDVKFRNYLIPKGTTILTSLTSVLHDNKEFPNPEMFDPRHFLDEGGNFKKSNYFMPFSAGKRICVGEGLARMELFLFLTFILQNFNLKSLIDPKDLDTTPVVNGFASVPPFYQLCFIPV
Sequence of CYP 2C9 (P11712 whole entry): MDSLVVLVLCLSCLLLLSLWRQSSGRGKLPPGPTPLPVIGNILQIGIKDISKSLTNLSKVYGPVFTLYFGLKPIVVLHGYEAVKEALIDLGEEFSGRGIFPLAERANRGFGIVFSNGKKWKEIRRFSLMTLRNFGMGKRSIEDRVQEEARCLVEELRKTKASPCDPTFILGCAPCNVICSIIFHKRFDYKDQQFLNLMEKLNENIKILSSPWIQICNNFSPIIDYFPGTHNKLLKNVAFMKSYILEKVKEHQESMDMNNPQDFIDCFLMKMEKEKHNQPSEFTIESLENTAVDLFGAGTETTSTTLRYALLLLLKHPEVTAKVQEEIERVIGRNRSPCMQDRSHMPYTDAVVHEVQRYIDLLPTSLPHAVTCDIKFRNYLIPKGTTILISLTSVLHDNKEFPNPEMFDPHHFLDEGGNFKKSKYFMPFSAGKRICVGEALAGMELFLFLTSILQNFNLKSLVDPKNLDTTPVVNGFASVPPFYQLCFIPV

## CNC(=O)c1ccc(N2C(=S)N(c3ccc(C#N)c(C(F)(F)F)c3)C(=O)[C@]23CCOC3)cc1F [ONC1-13B, 4-[(R)-3-(4-Cyano-3-trifluoromethyl-phenyl)-4-oxo-2-thioxo-7-oxa-1,3-diaza-spiro[4.4]non-1-yl]-2-fluoro-N-methyl-benzamide]
[1]
  inhibition of [3H]GABA specific binding: 42%
[2]; 20 mg/kg twice daily
  antitumor efficacy, in words: highest antitumor efficacy
[2]; 20 mg/kg twice daily po, 21 days
  tumors regressed: 4 of 8
[2]; once daily at 20 or 50 mg/kg, vs MDV3100 10mg/kg once daily
  antitumor efficacy, in words: comparable to MDV3100
[3]
  Bound fraction: 90.7%
[4]
  Bound fraction: 89.7%
[5]
  Bound fraction: 89.5%
[6]
  Bound fraction: 89.3%
[7]
  weight of prostate, epididymis and seminal vesicles, in words: significantly and dose-dependently decreases
[8]; 30 mg/kg po
  Concentration of spermatozoon in epididymis, M±m: 29,00 ± 2,73 х 10^6/ml
[8]; 300 mg/kg po
  Concentration of spermatozoon in epididymis, M±m: 16,00 ± 2,37 х 10^6/ml
[9]
  steady-state reached after: 10 administrations
[10]
  Kp: 1.2 to 1.6
  Kp at 30 min: 1.55 ± 0.08
  Kp at 120 min: 1.2 ± 0.36
[10]; Prostate
  concentration at 30 min: 1160 ± 164 ng/g
  concentration at 120 min: 625 ± 108 ng/g
[10]; brain
  concentration at 30 min: 145 ± 22 ng/g
  concentration at 120 min: 89 ± 10 ng/g
[10]; plasma
  concentration at 30 min: 746 ± 104 ng/mL
  concentration at 120 min: 522 ± 57 ng/mL
[11]; 1uM
  CYP3A induction, in words: no activity
[11]; 1 uM
  CYP 3A induction, Positive control, %: 0.0±2.0% and 3.3±0.6%
[11]; 10uM
  fold less potent in CYP3A induction compared to MDV3100 and ARN-509: ~ 2 fold
[11]; 10 uM
  CYP 3A induction, Positive control, %: 51.3±3.5% and 42.0±6.1%
[12]
  inhibition of CYP 1A2 activity: doesn`t inhibit
[13]
  inhibition of CYP 2C9 activity: doesn`t inhibit
[14]
  inhibition of CYP 2C19 activity: doesn`t inhibit
[15]
  inhibition of CYP 2D6 activity: doesn`t inhibit
[16]
  inhibition of CYP 3A4 activity: doesn`t inhibit
[17]
  IC50: 19.9 µM
[18]; Multiple PO 100 mg/kg
  C24h: 2 794 ng/mL
[18]; Multiple PO 300 mg/kg
  C24h: 2 122 ng/mL
[18]; Single IV 1 mg/kg
  Vss_obs: 2.0 L/kg
  Сl: 6.4 mL/min/kg
[18]; iv, 1 mg/kg
  AUC(0-inf): 2.57 µg·h/mL
  k el: 4.64e-05 s⁻¹
[18]; po, 5 mg/kg
  MRT inf: 7 h
  concentration at 24 h: 51 ng/mL
  k el: 3.61e-05 s⁻¹
[18]; po, 30 mg/kg
  AUC(0-inf): 95 µg·h/mL
  Cmax: 7160 ng/mL
  MRT inf: 4 h
  Tmax: 4 h
  concentration at 24 h: 159 ng/mL
  half-life: 240 min
  k el: 5.28e-05 s⁻¹
[18]; po, 100 mg/kg
  AUC(0-inf): 268 µg·h/mL
  Cmax: 16400 ng/mL
  MRT inf: 10 h
  Tmax: 4 h
  half-life: 480 min
  k el: 2.5e-05 s⁻¹
[18]; po, 300 mg/kg
  AUC(0-inf): 314 µg·h/mL
  Cmax: 20500 ng/mL
  MRT inf: 7 h
  Tmax: 4 h
  half-life: 360 min
  k el: 3.06e-05 s⁻¹
[19]; 20 mg/kg
  Kp at 24 h: 0.78 ± 0.08
  concentration at 24 h: 76.2 ng/mL and 52.6 ng/g
[19]; 50 mg/kg
  Kp at 24 h: 0.77 ± 0.13
  concentration at 24 h: 154 ng/mL and 138 ng/g
[19]; po, 20 mg/kg
  Kp at 16 h: 0.72 ± 0.05
  concentration at 16 h: 456 ng/mL and 442 ng/g
